Measured values taken from patent publication US20140228279A1, “CATIONIC PEPTIDOPOLYSACCHARIDES WITH EXCELLENT BROAD- SPECTRUM ANTIMICROBIAL ACTIVITIES AND HIGH SELECTIVITY” (priority 2011, published 2014).
Values after ≈ are worked out from the molar mass of the structure shown. “Also recorded” adds a separate entry of the source. Read-outs that look alike come from different tables or passages of the source.

Experiments:
[1] = tested on: Escherichia coli (ATCC8739); conditions: comparator agents (#3A-#6E), previously reported; cited from earlier work
human red blood cells [2] = conditions: cited from earlier work
human red blood cells [3] = test: Hemolysis assay; format: cell-based; conditions: for HC50 (the concentration which is 50% hemolytic): human erythrocytes, 1 h at 37° C.
Procedure: Fresh human blood (5 ml) was collected from a healthy donor. Erythrocytes were separated by centrifugation at 1000 rpm for 10 min, washed three times with Tris buffer (10 mM Tris, 150 mM NaCl, pH 7.2) and diluted to final concentration (5%, v/v). 50 μl of antimicrobial solution at different concentrations mixed with 50 μl erythrocytes stock were added to a 96-well microplate and incubated for 1 h at 37° C. with 150 rpm shaking. The microplate were centrifuged at 1,000 rpm for 10 min. 80 μl aliquots of the supernatant were then transferred to a new 96-well microplate and diluted with another 80 μl of Tris buffer. Hemolysis was measured as the absorbance at 540 nm with a microplate reader (BIO-RAD, US). Complete hemolysis was determined in Tris buffer plus 0.1% Triton x-100 as positive control, while Tris buffer was used as negative control. The percentage of hemolysis (H) was calculated using the following equation: Hemolysis=[(Op−Ob)/(Ot−Ob)]×100%, where Op is the density for a given antimicrobial agent concentration, Ob is the density for the buffer, and Ot is the density for the Triton x-100 positive control.

[4] = tested on: the three bacteria (P. aeruginosa, E. coli, S. aureus); test: MIC, summarised over the bacterial pathogens; format: cell-based; conditions: for MIC against the bacterial pathogens: lower bound over the three bacteria
Procedure: (§1) Bacteria cells were grown overnight at 37° C. in MH broth to a mid-log phase and diluted to 10^4 to 10^5 CFU ml^−1. A twofold dilution series of 100 μl product solution in MH broth (YM broth for the fungi C. albicans and F. solani) was made on 96-well microplate, followed by the addition of 100 μl bacterial suspension (10^4 to 10^5 CFU mL^−1). The plates were incubated at 37° C. for 18-24 h (28° C., 36-48 h for fungi), and the absorbance at 600 nm was measured with a microplate reader (BIO-RAD, US). Positive control was without product, and negative control was without bacteria/fungi inoculum. MICs were determined as the lowest concentration that inhibited cell growth by more than 90%.

[5] = tested on: Pseudomonas aeruginosa (ATCC9027); test: Minimal inhibitory concentration (MIC), twofold broth dilution; format: cell-based; conditions: Gram-negative; lowest concentration inhibiting growth by more than 90%
Procedure: as §1

[6] = tested on: Staphylococcus aureus (ATCC6538); test: as above; format: cell-based; conditions: Gram-positive; lowest concentration inhibiting growth by more than 90%
Procedure: as §1

[7] = tested on: Candida albicans (ATCC10231); test: as above; format: cell-based; conditions: fungi; lowest concentration inhibiting growth by more than 90%
Procedure: as §1

[8] = tested on: Fusarium solani (ATCC36031); test: as above; format: cell-based; conditions: fungi; lowest concentration inhibiting growth by more than 90%
Procedure: as §1

[9] = tested on: Escherichia coli (ATCC8739); test: as above; format: cell-based; conditions: Gram-negative; lowest concentration inhibiting growth by more than 90%
Procedure: as §1

[10] = tested on: all tested bacteria and fungi (P. aeruginosa, E. coli, S. aureus, C. albicans, F. solani); test: MIC, summarised over all pathogens tested; format: cell-based; conditions: for MICs for all pathogens tested: range over Gram-negative, Gram-positive bacteria and fungi
Procedure: as §1

[11] = tested on: SMCs and E. coli co-culture; test: Co-culture of bacteria and mammalian cells; format: cell-based; conditions: 100 μg ml^−1, 6 h after inoculation of 1×10^5 E. coli
Procedure: SMCs were cultured in 96-well plates from inocula of 1×10^5 cells in each well and incubated at 37° C. for 24 h in a culture medium free of any antibiotics. 1×10^5 cells E. coli was seeded in the SMC culture wells. Then CS-g-K16 was added in the SMC and E. coli co-culture wells at a concentration of 100 μg ml^−1. Wells without CS-g-K16 were used as a control. The co-culture was imaged using an inverted optical microscope (Carl Zeiss, Germany).

[12] = tested on: E. coli, P. aeruginosa, S. aureus, C. albicans, F. solani cells; test: Morphology study of microorganisms (FESEM); format: cell-based; conditions: at MIC concentration, 15 min treatment, compared with intact controls
Procedure: After incubation the microbes were immediately fixed with glutaraldehyde (2.5%, 5 ml) solution for 4 hr. Following dehydration in a graded ethanol series (20%-100%) and drying under a nitrogen flow, the samples were coated with platinum and imaged with FESEM (JEOL JSM-6700F) for microbe morphology changes.

E. coli membrane = test: Membrane depolarization, DiSC3(5) dye leakage; format: cell-based, Escherichia coli; conditions: 100 μg ml^−1
Procedure: Bacteria were harvested at mid-log phase, washed three times with a buffer solution of 20 mM glucose and 5 mM HEPES (pH 7.4). The bacteria was resuspended in the washing buffer with additional 0.1 M KCl, then incubated with DiSC3(5) (20 nM) until it was incorporated into the cell membrane. The CS-g-K16 was added at a concentration of 100 μg ml^−1, and the fluorescence was monitored with a fluorescence spectrometer (PerkinElmer LS55, U.S.) at λex=620 nm and λem=670 nm. Finally, 0.2 nM Gramicidin D was added to obtain the full release of the dye.

E. coli = test: LIVE/DEAD bacterial viability assay; format: cell-based, Escherichia coli; conditions: at MIC concentration, 15 min at 37° C.
Procedure: LIVE/DEAD assay was carried out using CS-g-K16 with E. coli. […] After incubation the cells were collected by centrifugation and stained with BacLight bacterial viability kit L13152 (Invitrogen) for 30 min at room temperature. The cells were then imaged with fluorescence microscopy (Carl Zeiss, Germany).

Compound	MIC P. aeruginosa [5] [mg/L]	MIC S. aureus [6] [mg/L]	MIC C. albicans [7] [mg/L]	MIC F. solani [8] [mg/L]	MIC E. coli [9] [mg/L]	also measured
CC[C@H](C)[C@H](NC(=O)CN)C(=O)NCC(=O)N[C@@H](C)C(=O)N[C@H](C(=O)N[C@@H](CC(C)C)C(=O)N[C@@H](CCCCN)C(=O)N[C@H](C(=O)N[C@@H](CC(C)C)C(=O)N[C@H](C(=O)N[C@H](C(=O)NCC(=O)N[C@@H](CC(C)C)C(=O)N1CCC[C@H]1C(=O)N[C@@H](C)C(=O)N[C@@H](CC(C)C)C(=O)N[C@H](C(=O)N[C@@H](CO)C(=O)N[C@@H](Cc1c[nH]c2ccccc12)C(=O)N[C@H](C(=O)N[C@@H](CCCCN)C(=O)N[C@@H](CCCNC(=N)N)C(=O)N[C@@H](CCCCN)C(=O)N[C@@H](CCCNC(=N)N)C(=O)N[C@@H](CCC(N)=O)C(=O)N[C@@H](CCC(N)=O)C(N)=O)[C@@H](C)CC)[C@@H](C)CC)[C@@H](C)O)[C@@H](C)O)C(C)C)C(C)C [Melittin]						MIC E. coli [1]: 13 mg/L (≈ 4.57 µM); HC50 (the concentration which is 50% hemolytic) (human red blood cells [2]; comparator agents (#3A-#6E), previously reported): 2 µg/mL
Magainin-2						MIC E. coli [1]: 125 mg/L; HC50 (the concentration which is 50% hemolytic) (human red blood cells [2]): >250 µg/mL
chitosan-graft-poly(lysine-ran-phenylalanine) [CS-g-K8F8]	>2500	2500	>2500	160	>2500	HC50 (the concentration which is 50% hemolytic) (human red blood cells [3]): 12500 µg/mL; MIC against the bacterial pathogens [4]: ≥ 2500 mg/L
chitosan-graft-poly(lysine-ran-phenylalanine) [CS-g-K12.5F12.5]	1250	1250	310	80	630	HC50 (the concentration which is 50% hemolytic) (human red blood cells [3]): 7500 µg/mL; increase of MICs compared with P(K12.5F12.5) (#5B) ([4]; for the three bacteria): more than 5 times; MIC against the bacterial pathogens [4]: ≥ 630 mg/L
chitosan-graft-polylysine [CS-g-K1]	80	160	40	40	80	
chitosan-graft-polylysine [CS-g-K3-HMW]	310	160	160	40	80	MICs relative to those of CS-g-K3 (#1B) ([10]; same grafting ratio of lysine, higher molecular weight chitosan, all five pathogens): ≥ 4 fold
chitosan-graft-polylysine [CS-g-K3]	20	40	20	10	20	
chitosan-graft-polylysine [CS-g-K9]	20	20	20	5	10	MICs for all pathogens tested [10]: 5 to 20 µg/mL
chitosan-graft-polylysine [CS-g-K16]	20	10	20	5	10	HC50 compared with other state-of-the-art antimicrobial polymers (human red blood cells [3]): 3 to 5 orders of magnitude; hemolytic percentage (human red blood cells [3]): below 50%; MICs for all pathogens tested [10]: 5 to 20 µg/mL; MICs against Gram-negative and Gram-positive bacteria and fungi ([10]; range over all pathogens): 5-20 μml^−1; bacterial growth and SMCs growth in co-culture [11]: inhibits the bacterial growth but permits SMCs growth; also recorded: bacteria were inhibited and SMCs grew well; morphology of microbial cells (FESEM) [12]: exhibit obvious morphological changes; membrane potential sensitive dye DiSC3(5) leakage (E. coli membrane): immediate fluorescence increase; bacterial viability by LIVE/DEAD stain (SYTO 9 / propidium iodide) (E. coli): renders E. coli cell membrane permeable to propidium iodide
chitosan-graft-polylysine [CS-g-K25]	40	10	20	5	10	
